Test results: EP0552624B1, “Use of 9-cis retinoic acid, salts and esters thereof for the treatment of epithelial tumors” (F. HOFFMANN-LA ROCHE AG, priority 1992, dated 1993)

Columns and labels:
SKv-e1 (non-tumorigenic) [1] = assay: Cell induced angiogenesis, in vitro preincubation of cells, SKv-e1; assay type: in vivo, Balb/c mice
Method: (§1) The angiogenesis assays have been, previously described (Sidky YA and Auerbach R. Lymphocyte induced angiogenesis: A quantitative and sensitive assay of the graft-vs-host reaction. J. exp Med 141: 1084-1100, 1975. Majewski S et al. Inhibition of tumour-induced angiogenesis by systemically administered protamine sulphate. Int J Cancer 33: 831-833, 1984). Two assays were used in testing 9-cis retinoic acid. In the first assay the retinoid was added in vitro to the cell line before being injected into mice. In the second assay the mice were injected intraperitoneally with the retinoid in vivo before the tumor cell line was injected intradermally.
(§2) Method: Cells of two tumorigenic cell lines, SKv-e2 and HeLa, and of a non-tumorigenic cell line, SKv-e1 were preincubated in vitro for 48 hours with 9-cis retinoic acid at a concentration of 10^-7 M followed by cell counting and washing in TC 199 medium. The cell concentration was adjusted to 2·10^5 viable cells per 0.1 ml of medium and injected intradermally into X-ray irradiated, but not retinoid-treated Balb/c mice. Controls were injected with tumor cells preincubated with DMSO. The angiogenic effect was determined according to the methods referred to above.

SKv-12 (Tumorigenic) = assay: Cell induced angiogenesis, in vivo pretreatment of mice, SKv-12; design: species or system Balb/c mice; conditions: mice pretreated in vivo intraperitoneally before intradermal cell injection, control 30.3 ± 2.6
Method: as §1

SKv-e2 (tumorigenic) [2] = assay: Cell induced angiogenesis, in vivo pretreatment of mice, SKv-e2; design: species or system Balb/c mice; conditions: mice pretreated in vivo intraperitoneally before intradermal cell injection, control 31.3 ± 2.7
Method: as §1

[3] = test system: SKv-l1, a transformed keratinocyte cell line containing human papilloma virus 16 (HPV 16); assay: Proliferation assay by direct cell counting on HPV 16-containing transformed keratinocytes; assay type: cell-based; conditions: 48 h, 10^-6 M, incubated for 2 days, p < 0.001, read-out: inhibited proliferation (growth inhibition in % compared to controls)
Method: 9-cis retinoic acid was further investigated on its effect on other transformed cell lines. A proliferation assay was performed on a virus containing cell line. SKv-l1, a transformed keratinocyte cell line containing human papilloma virus 16 (HPV 16) was tested with regard to inhibition of proliferation by 9-cis retinoic acid in two experiments with four replicates. 5·10^4 cells/well were plated in Eagle's medium and incubated for 2 days. Direct cell counting with a hemocytometer was done before and after incubation with the retinoid in a concentration of 10^-6 M and in corresponding DMSO controls. Growth inhibition was expressed in % compared to controls.

SKv-e2 (tumorigenic) [4] = assay: Tumor cell induced angiogenesis, in vitro preincubation of cells, SKv-e2; assay type: in vivo; conditions: SKv-e2 cells preincubated in vitro 48 hours with 10^-7 M, injected intradermally into untreated Balb/c mice; controls 34.7±3.7
Method: as §1, §2

HeLa (tumorigenic) [5] = assay: Cell induced angiogenesis, in vivo pretreatment of mice, HeLa; design: species or system Balb/c mice; conditions: mice pretreated in vivo intraperitoneally before intradermal cell injection, control 28.3 ± 0.8
Method: as §1

SKv-e1 (non-tumorigenic) [6] = assay: Cell induced angiogenesis, in vivo pretreatment of mice, SKv-e1; design: species or system Balb/c mice
Method: as §1

HeLa (tumorigenic) [7] = assay: Tumor cell induced angiogenesis, in vitro preincubation of cells, HeLa; assay type: in vivo; conditions: HeLa cells preincubated in vitro 48 hours with 10^-7 M, injected intradermally into untreated Balb/c mice; controls 32.5±2.7
Method: as §1, §2

[8] = Acute toxicity, single intraperitoneal dose; assay type: in vivo, Füllinsdorf albino mice; conditions: single i.p. dose in rape oil
Method: Acute Toxicity was determined in Füllinsdorf albino mice. 9-cis retinoic acid was suspended in rape oil and administered intraperitoneally in one single dose. The lethal dose (LD) of 10%, 50% and 90% of the mice was recorded 24 hours, 10 days and 20 days after the application of the single dose. For each group 10 mice were used.

For `CC(=CC=C/C(C)=C/C(=O)O)/C=C/C1=C(C)CCCC1(C)C` (stereo in doubt) [9-cis retinoic acid, (E,Z,E,E)-3,7-dimethyl-9-[2,6,6-trimethyl-1-cyclohexen-1-yl]-2,4,6,8-nonatetraenoic acid], the “Mean number of blood vessels” value (SKv-e1 (non-tumorigenic) [1]; SKv-e1 cells preincubated in vitro 48 hours with 10^-7 M, injected intradermally into untreated Balb/c mice, controls 26.3±1.5) was 25.6±2.2 p < 0.1, the “angiogenesis induced by the non-tumorigenic subline” value (SKv-e1 (non-tumorigenic) [1]; in vitro preincubation of SKv-e1 cells, result in words) was “did not inhibit angiogenesis” and the “Mean number of blood vessels” value (SKv-12 (Tumorigenic)) was 15.3 ± 1.0. For the same molecule, the “Mean number of blood vessels” value (SKv-e2 (tumorigenic) [2]) was 19.7 ± 0.6, the inhibition at 1 µM [3] was 32.4% and the “Mean number of blood vessels” value (SKv-e2 (tumorigenic) [4]) was 23.6±4.2 p < 0.001. The “Mean number of blood vessels” value (HeLa (tumorigenic) [5]) was 16.3 ± 1.8, the “Mean number of blood vessels” value (SKv-e1 (non-tumorigenic) [6]; SKv-e1, mice pretreated in vivo intraperitoneally before intradermal cell injection, control 19.7 ± 3.7) was 24.3 ± 5.6 and the “anti-angiogenic effect with a non-tumorigenic cell line” value (SKv-e1 (non-tumorigenic) [6]; mice treated in vivo, result in words) was “no anti-angiogenic effect”. The “Mean number of blood vessels” value (HeLa (tumorigenic) [7]) was 23.8±2.9 p < 0.001, the LD50 at 24 hours ([8]; Füllinsdorf albino, mouse, in vivo, ip, recorded 24 hours after) was over 4000 mg/kg and the LD50 at 10 days ([8]; Füllinsdorf albino, mouse, in vivo, ip, recorded 10 days after) was 1400 mg/kg. For the same molecule, the LD50 at 20 days ([8]; Füllinsdorf albino, mouse, in vivo, ip, recorded 20 days after) was 1400 mg/kg, the “LD 10%” value ([8]; recorded 24 hours after) was over 4000 mg/kg and the “LD 90%” value ([8]; recorded 24 hours after) was over 4000 mg/kg. For the same molecule, the “LD 10%” value ([8]; recorded 10 days after) was 1200 mg/kg, the “LD 90%” value ([8]; recorded 10 days after) was 1800 mg/kg and the “LD 10%” value ([8]; recorded 20 days after) was 1200 mg/kg. For the same molecule, the “LD 90%” value ([8]; recorded 20 days after) was 1800 mg/kg.
